Measured values reported in patent publication US20260159536A1, “AKR1C3-ACTIVATED DNA ALKYLATING AGENT, AND MEDICAL APPLICATION THEREOF” (ASCENTAWITS PHARMACEUTICALS, LTD., priority 2021, published 2026).
Several values for one entry are separate records, joined by “and”; a condition that tells them apart may be missing. Identical values can stand only once. Like-named read-outs stand apart in the source and are kept apart here.

Tests used:
[1] = tested on: HuPrime model LI6643 human liver cancer; assay: In vivo pharmacodynamics, liver cancer LI6643 PDX model (Compound A, Sorafenib; section 4.8); set-up: species or system BALB/c nude mice; conditions: for Tumor volume: 10 mg/kg i.v.
Experimental: Experiment Instruction: BALB/c nude mice were subcutaneously inoculated with HuPrime® model LI6643 tumor blocks to establish a subcutaneous transplantation tumor model of human liver cancer. […] The efficacy was evaluated according to the relative tumor inhibition rate TGI (%), and the safety was evaluated according to the change in body weight and the death of the animals.

[2] = tested on: human liver cancer LI6652; assay: In vivo pharmacodynamics, liver cancer LI6652 subcutaneous xenograft PDX model; set-up: species or system BALB/c nude mice; conditions: 5 mg/kg i.p. QDx5, 2 days off, 2 weeks off, 2 cycles; Day 28
[3] = Blood-brain barrier assay of Compound A (plasma and brain concentration, PK); type: in vivo, CD-1 mice; conditions: for concentration at 0.083 h / concentration at 0.25 h / concentration at 1 h / concentration at 2 h / concentration at 4 h / concentration at 8 h / Kp at 0.083 h / Kp at 0.25 h / Kp at 1 h / Kp at 2 h / Kp at 4 h / Kp at 8 h / Brain concentration / Plasma concentration / Ratio (Brain/Plasma): IV 1 mg/kg; for MRT inf: read-out: MRTInf_obs; for half-life: read-out: T½ (converted)
Experimental: Three CD-1 mice were administered 1 mg/kg of the test Compound A intravenously at each time point. Blood and brain tissue were taken at 5 min, 15 min, 1 h, 2 h, 4 h and 8 h after administration.
The PK (Pharmacokinetic) parameters obtained from the above assays were listed as follows, as shown in Table 33 and Table 34. • PK parameters, pharmacokinetic parameters. • T1/2, half-life. • Cl-obs, plasma clearance. • C0, starting concentration. • AUClast, area under the concentration-time curve from start of administration time to the last point. • AUCInf, area under the concentration-time curve from start of administration to the time at infinity. • Tmax, time to maximum observed plasma concentration. • Cmax, concentration to maximum observed plasma concentration. • MRTlnf-obs, represents the mean residence time from the start of administration to the time of theoretical extrapolation to infinity. • AUClnf Ration (Brain/Plasma), the ratio of the area under the concentration-time curve of serum and brain tissue from the start of administration to the time at infinity. • Unit, unit. • Mean, average value.

[4] = 10 mg/kg, QWx2, 1 week off, QWx2, i.v., Day 35
[5] = CD-1, mouse, iv, brain tissues, 1 mg/kg intravenously, Mean
[6] = CD-1, mouse, iv, plasma, 1 mg/kg intravenously, Mean
[7] = 0.083 h, individual animals, 1 mg/kg
[8] = 0.25 h, individual animals, 1 mg/kg
[9] = 1 h, individual animals, 1 mg/kg
[10] = 2 h, individual animals, 1 mg/kg
[11] = 4 h, individual animals, 1 mg/kg
[12] = 8 h, individual animals, 1 mg/kg
[13] = brain tissues, 1 mg/kg intravenously, Mean
[14] = plasma, 1 mg/kg intravenously, Mean

O=[N+]([O-])c1ccc(C(OP(=O)(N2CC2)N2CC2)C(F)(F)F)cc1Oc1ccc(-c2ccc(F)cc2)c(F)c1 (racemic) [Compound A]
Tumor volume ([1]; Day 32): 7.11 mm^3
Tumor volume ([1]; Day 35): 0.00 mm^3
Tumor volume ([1]; Day 39): 0.00 mm^3
Tumor volume ([1]; Day 42): 0.00 mm^3
Tumor volume ([1]; Day 46): 0.00 mm^3
Tumor volume ([1]; Day 49): 0.00 mm^3
Tumor volume ([1]; Day 53): 0.00 mm^3
Relative tumor volume (x ± S) [1, 4]: 0 ± 0
T/C (%) [1, 4]: 0.00%
TGI (%) [1, 4]: 100.00%
Tumor volume (x ± S) [1, 4]: 0 ± 0
toxic side effects (body weight change) ([1]; 1.25, 2.5, 5, 10 mg/kg): without toxic side effects
TGI (%) [2]: 99.86%
blood-brain barrier penetration ([3]; 1 mg/kg intravenously, within 8 hours): can effectively penetrate the blood-brain barrier
concentration at 0.083 h ([3]; CD-1, mouse, brain, iv, 1 mg/kg, 0.083 h, individual animals, read-out: Brain concentration): 538 ng/g
concentration at 0.25 h ([3]; CD-1, mouse, brain, iv, 1 mg/kg, 0.25 h, individual animals, read-out: Brain concentration): 419 ng/g
concentration at 1 h ([3]; CD-1, mouse, brain, iv, 1 mg/kg, 1 h, individual animals, read-out: Brain concentration): 180 ng/g
concentration at 2 h ([3]; CD-1, mouse, brain, iv, 1 mg/kg, 2 h, individual animals, read-out: Brain concentration): 107 ng/g
concentration at 4 h ([3]; CD-1, mouse, brain, iv, 1 mg/kg, 4 h, individual animals, read-out: Brain concentration): 71.2 ng/g
concentration at 8 h ([3]; CD-1, mouse, brain, iv, 1 mg/kg, 8 h, individual animals, read-out: Brain concentration): 23.6 ng/g
Kp ([3]; CD-1, mouse, brain/plasma, iv, 1 mg/kg, 1 mg/kg intravenously, Mean, read-out: AUCInf Ratio (Brain/Plasma)): 0.8
Kp at 0.083 h ([3]; CD-1, mouse, brain/plasma, iv, 1 mg/kg, 0.083 h, individual animals, read-out: Ratio (Brain/Plasma)): 1.17
Kp at 0.083 h ([3]; CD-1, mouse, brain/plasma, iv, 1 mg/kg, 0.083 h, mean of 3 animals, read-out: Ratio (Brain/Plasma), Mean): 1.28
Kp at 0.25 h ([3]; CD-1, mouse, brain/plasma, iv, 1 mg/kg, 0.25 h, individual animals, read-out: Ratio (Brain/Plasma)): 1.13
Kp at 0.25 h ([3]; CD-1, mouse, brain/plasma, iv, 1 mg/kg, 0.25 h, mean of 3 animals, read-out: Ratio (Brain/Plasma), Mean): 1.15
Kp at 1 h ([3]; CD-1, mouse, brain/plasma, iv, 1 mg/kg, 1 h, individual animals, read-out: Ratio (Brain/Plasma)): 0.8
Kp at 1 h ([3]; CD-1, mouse, brain/plasma, iv, 1 mg/kg, 1 h, mean of 3 animals, read-out: Ratio (Brain/Plasma), Mean): 0.76
Kp at 2 h ([3]; CD-1, mouse, brain/plasma, iv, 1 mg/kg, 2 h, individual animals, read-out: Ratio (Brain/Plasma)): 0.71
Kp at 2 h ([3]; CD-1, mouse, brain/plasma, iv, 1 mg/kg, 2 h, mean of 3 animals, read-out: Ratio (Brain/Plasma), Mean): 0.67
Kp at 4 h ([3]; CD-1, mouse, brain/plasma, iv, 1 mg/kg, 4 h, individual animals, read-out: Ratio (Brain/Plasma)): 0.74
Kp at 4 h ([3]; CD-1, mouse, brain/plasma, iv, 1 mg/kg, 4 h, mean of 3 animals, read-out: Ratio (Brain/Plasma), Mean): 0.78
Kp at 8 h ([3]; CD-1, mouse, brain/plasma, iv, 1 mg/kg, 8 h, individual animals, read-out: Ratio (Brain/Plasma)): 0.48
Kp at 8 h ([3]; CD-1, mouse, brain/plasma, iv, 1 mg/kg, 8 h, mean of 3 animals, read-out: Ratio (Brain/Plasma), Mean): 0.52
Cmax [3, 5]: 543 ng/g
Tmax [3, 5]: 4.8 min
MRT inf [3, 5]: 2.99 h
half-life [3, 5]: 2.8 h
AUC(0-inf) [3, 6]: 1200 ng·h/mL
AUC(0-t) [3, 6]: 980 ng·h/mL
C0 [3, 6]: 453 ng/mL
MRT inf [3, 6]: 4.37 h
half-life [3, 6]: 3.64 h
concentration at 0.083 h ([3]; CD-1, mouse, plasma, iv, 1 mg/kg, 0.083 h, individual animals, read-out: Plasma concentration): 460 ng/mL
concentration at 0.25 h ([3]; CD-1, mouse, plasma, iv, 1 mg/kg, 0.25 h, individual animals, read-out: Plasma concentration): 372 ng/mL
concentration at 1 h ([3]; CD-1, mouse, plasma, iv, 1 mg/kg, 1 h, individual animals, read-out: Plasma concentration): 229 ng/mL
concentration at 2 h ([3]; CD-1, mouse, plasma, iv, 1 mg/kg, 2 h, individual animals, read-out: Plasma concentration): 150 ng/mL
concentration at 4 h ([3]; CD-1, mouse, plasma, iv, 1 mg/kg, 4 h, individual animals, read-out: Plasma concentration): 96.4 ng/mL
concentration at 8 h ([3]; CD-1, mouse, plasma, iv, 1 mg/kg, 8 h, individual animals, read-out: Plasma concentration): 48.8 ng/mL
Brain concentration [3, 7]: 540.75 ng/g and 549.95 ng/g
Plasma concentration [3, 7]: 400.55 ng/mL and 416.19 ng/mL
Ratio (Brain/Plasma) [3, 7]: 1.35 and 1.32
Brain concentration [3, 8]: 489.60 ng/g and 371.38 ng/g
Plasma concentration [3, 8]: 382.24 ng/mL and 384.54 ng/mL
Ratio (Brain/Plasma) [3, 8]: 1.35 and 0.97
Brain concentration [3, 9]: 188.68 ng/g and 169.85 ng/g
Plasma concentration [3, 9]: 238.84 ng/mL and 249.07 ng/mL
Ratio (Brain/Plasma) [3, 9]: 0.79 and 0.68
Brain concentration [3, 10]: 94.27 ng/g and 77.50 ng/g
Plasma concentration [3, 10]: 134.42 ng/mL and 131.84 ng/mL
Ratio (Brain/Plasma) [3, 10]: 0.70 and 0.59
Brain concentration [3, 11]: 68.47 ng/g and 42.73 ng/g
Plasma concentration [3, 11]: 74.91 ng/mL and 63.17 ng/mL
Ratio (Brain/Plasma) [3, 11]: 0.91 and 0.88
Brain concentration [3, 12]: 21.85 ng/g and 18.85 ng/g
Plasma concentration [3, 12]: 49.05 ng/mL and 29.91 ng/mL
Ratio (Brain/Plasma) [3, 12]: 0.45 and 0.83
AUCInf [3, 13]: 872.43 ng·h/g
AUClast [3, 13]: 785.85 ng·h/g
Cl_obs [3, 14]: 13.85 mL/min/kg
Vss_obs [3, 14]: 3.63 L/kg
